# Test results published in patent publication US8168619B1, “Hormonal composition based on a progestational agent and an oestrogen and use thereof” (Laboratoire Theramex, priority 1999, dated 2012).
# Read-outs that look alike come from different tables or passages of the source.
# Legend:
# ovulation [1] = details: cited from earlier work
# [2] = NEUMANN publication; cited from earlier work
# endometrium [3] = details: cited from earlier work
# ovulation [4] = test: Dose inhibiting ovulation (literature); assay type: in vivo; details: NEUMANN; reference progestative norgestrel (=1)
# Excerpt: (§1) 2) Apart from the above, it would be reasonable to think that the doses claimed should be based on data from clinical pharmacology and/or clinical data previously published and commonly accepted. Now, if the doses defined as in the PLUNKETT patents are considered, it is easy to see that in most cases the active doses published already a long time ago, i.e. before the said patents were filed (NEUMANN, 1977) or more recently (KUHL, 1996), are very coherent but only rarely lie within the dose ranges claimed in the patents in the name of PLUNKETT (Table 2).
# [5] = Dose having a contraceptive effect (literature); assay type: in vivo; details: NEUMANN; reference progestative norgestrel (=1)
# Excerpt: as §1
# menopausal women = test: Sequential estrogen-progestative therapy: interval before periods after therapy is interrupted; assay type: in vivo; details: Day 13-22, with 30 μg ethinyl estradiol
# Description: (§2) Menopausal women, whether naturally or as the result of surgery, were subjected to a sequential estrogen-progestative therapy. From Day 1 to Day 12 they received 30 μg of ethinyl estradiol and then, from Day 13 to Day 22, the same dose of ethinyl estradiol associated with different doses of nomegestrol acetate or chlormadinone acetate. The doses were as follows:
# (§3) The number of women was between 2 and 11, depending on the group. There was then a therapeutic pause of 7 days followed by a second treatment cycle.
# (§4) The parameters taken into account were as follows: • the interval before periods commenced after the therapy had been interrupted, following the first and second treatment cycles; • the histological appearance of the endometrium recovered in a biopsy carried out between Day 17 and Day 20 of the second cycle.
# endometrial cells = test: Sequential estrogen-progestative therapy: histological appearance of endometrium biopsy; assay type: in vivo, women; details: for Number of mitoses (% of section in which mitoses were present), Glands: with 30 μg ethinyl estradiol, biopsy Day 17-20 of second cycle
# Description: as §2, §3, §4
# endometrium [6] = test: Dose inducing transformation of the endometrium (literature); assay type: in vivo; details: NEUMANN; reference progestative norgestrel (=1)
# Excerpt: as §1
# [7] = NEUMANN publication; cited from earlier work; remark: listed apart in the source
SMILES,Dose necessary to inhibit ovulation (3) (ovulation [1]; NEUMANN publication),Dose necessary to have a contraceptive effect (4) [2],Dose necessary to induce transformation of the endometrium (1) (endometrium [3]; NEUMANN publication),"Dose ratio, Contraception (4) [5]","Dose ratio, Endometrium (1) (endometrium [6])","Dose necessary to produce an adequate delay in the onset of periods (2), Menstruation [7]",further results
"CC(=O)O[C@]1(C(C)=O)CC[C@H]2[C@@H]3C=C(Cl)C4=CC(=O)[C@@H]5C[C@@H]5[C@]4(C)[C@H]3CC[C@@]21C [CIP acetate, Cyproterone acetate]",1000 µg/day,2000 µg/day,1000 µg/day,8.0,,,"Dose necessary to inhibit ovulation (3) (ovulation [1]; KUHL): 1000 µg/day; Dose necessary to induce transformation of the endometrium (1) (endometrium [3]; KUHL): 2000 µg/day; Dose ratio, Ovulation (3) (ovulation [4]): 10.0"
"CC(=O)O[C@]1(C(C)=O)CC[C@H]2[C@@H]3C=C(Cl)C4=CC(=O)CC[C@]4(C)[C@H]3CC[C@@]21C [Chlormadinone acetate, chlormadinone acetate]",,,,,,,"Interval before the appearance of periods after the therapy is discontinued (menopausal women; 0.1 mg/day): -2.3 ± 0.5 days; Interval before the appearance of periods after the therapy is discontinued (menopausal women; 0.5 mg/day): 2.0 ± 0.6 days; Interval before the appearance of periods after the therapy is discontinued (menopausal women; 1.0 mg/day): 3.8 ± 0.3 days; Interval before the appearance of periods after the therapy is discontinued (menopausal women; 2.0 mg/day): 3.8 ± 0.3 days; Interval before the appearance of periods after the therapy is discontinued (menopausal women; 5 mg/day): 5.5 ± 1.5 days; Interval before the appearance of periods after the therapy is discontinued (menopausal women; 10 mg/day): 5.5 ± 0.5 days; Number of mitoses (% of section in which mitoses were present), Glands (endometrial cells; 0.1 mg/day): 90%; Mitosis in glandular cells (endometrial cells; 1 mg/day, sequential therapy with 30 μg ethinyl estradiol): mitosis is still evident; Number of mitoses (% of section in which mitoses were present), Glands (endometrial cells; 1 mg/day): 50%; Number of mitoses (% of section in which mitoses were present), Glands (endometrial cells; 2 mg/day): 0%; Number of mitoses (% of section in which mitoses were present), Glands (endometrial cells; 5 mg/day): 0%; Number of mitoses (% of section in which mitoses were present), Glands (endometrial cells; 10 mg/day): 0%"
C#C[C@]1(O)CC[C@H]2[C@@H]3CCC4=CCCC[C@@H]4[C@H]3CC[C@@]21C [Lynoestrenol],,2500 µg/day,5000 µg/day,10.0,4.2,,
"CC(=O)O[C@]1(C(C)=O)CC[C@H]2[C@@H]3C[C@H](C)C4=CC(=O)CC[C@]4(C)[C@H]3CC[C@@]21C [MPA, medroxyprogesterone acetate]",,5000 µg/day,5500 µg/day,20.0,,25000 µg/day,
C#C[C@]1(OC(C)=O)CC[C@H]2[C@@H]3CCC4=CC(=O)CC[C@@H]4[C@H]3CC[C@@]21C [Norethisterone acetate],800 µg/day,1000 µg/day,4500 µg/day,4.0,3.8,,
C#C[C@]1(O)CC[C@H]2[C@@H]3CCC4=CC(=O)CC[C@@H]4[C@H]3CC[C@@]21C [Norethisterone],800 µg/day,1000 µg/day,12500 µg/day,4.0,,5000 µg/day,Dose necessary to inhibit ovulation (3) (ovulation [1]; KUHL): 400 µg/day; Dose necessary to induce transformation of the endometrium (1) (endometrium [3]; KUHL): 10000 µg/day
C#C[C@]1(O)CC[C@H]2[C@@H]3CCC4=C(CCC(=O)C4)[C@H]3CC[C@@]21C [Norethynodrel],6000 µg/day,2500 µg/day,10000 µg/day,10.0,8.3,7500 µg/day,
